Experimental data as given in the NIST ThermoML archive (doi:10.1021/je300590v).
± gives the expanded uncertainty stated by the source.

Experiment: xn = mol fraction of the nth substance listed
Conditions: Vibrating tube method

## O=O [oxygen] + O=C=O
273.15 K, 1001 kPa, Gas, x2 = 0.8512
  mass density: 20 ± 0.2 kg/m3
273.15 K, 1001 kPa, Gas, x2 = 0.9558
  mass density: 21 ± 0.2 kg/m3
273.15 K, 2001 kPa, Gas, x2 = 0.8512
  mass density: 41.9 ± 0.2 kg/m3
273.15 K, 2001 kPa, Gas, x2 = 0.9558
  mass density: 44.5 ± 0.2 kg/m3
273.15 K, 3000 kPa, Gas, x2 = 0.8512
  mass density: 68 ± 0.2 kg/m3
273.15 K, 3001 kPa, Gas, x2 = 0.9558
  mass density: 74.2 ± 0.2 kg/m3
273.15 K, 3600 kPa, Gas, x2 = 0.9558
  mass density: 97.6 ± 0.3 kg/m3
273.15 K, 4001 kPa, Gas, x2 = 0.8512
  mass density: 101 ± 0.3 kg/m3
273.15 K, 4400 kPa, Gas, x2 = 0.8512
  mass density: 121.1 ± 0.3 kg/m3
273.15 K, 5101 kPa, Liquid, x2 = 0.9558
  mass density: 895 ± 1 kg/m3
273.15 K, 6000 kPa, Liquid, x2 = 0.9558
  mass density: 902.5 ± 1.1 kg/m3
273.15 K, 7001 kPa, Liquid, x2 = 0.9558
  mass density: 911.9 ± 1 kg/m3
273.15 K, 8001 kPa, Liquid, x2 = 0.9558
  mass density: 920.4 ± 1.1 kg/m3
273.15 K, 9001 kPa, Liquid, x2 = 0.9558
  mass density: 928.6 ± 1 kg/m3
273.15 K, 9013 kPa, Liquid, x2 = 0.8512
  mass density: 798.3 ± 1.4 kg/m3
273.15 K, 10001 kPa, Liquid, x2 = 0.9558
  mass density: 936 ± 1 kg/m3
273.15 K, 10003 kPa, Liquid, x2 = 0.8512
  mass density: 811.5 ± 1.4 kg/m3
273.15 K, 11001 kPa, Liquid, x2 = 0.8512
  mass density: 825.1 ± 1.2 kg/m3
273.15 K, 11001 kPa, Liquid, x2 = 0.9558
  mass density: 943.1 ± 1 kg/m3
273.15 K, 12001 kPa, Liquid, x2 = 0.8512
  mass density: 837.4 ± 1.1 kg/m3
273.15 K, 12001 kPa, Liquid, x2 = 0.9558
  mass density: 949.6 ± 0.9 kg/m3
273.15 K, 13001 kPa, Liquid, x2 = 0.8512
  mass density: 848.5 ± 1.1 kg/m3
273.15 K, 13001 kPa, Liquid, x2 = 0.9558
  mass density: 955.8 ± 0.9 kg/m3
273.15 K, 14000 kPa, Liquid, x2 = 0.8512
  mass density: 858.7 ± 1 kg/m3
273.15 K, 14000 kPa, Liquid, x2 = 0.9558
  mass density: 961.5 ± 0.9 kg/m3
273.15 K, 15002 kPa, Liquid, x2 = 0.8512
  mass density: 868.2 ± 1 kg/m3
273.15 K, 15002 kPa, Liquid, x2 = 0.9558
  mass density: 967.1 ± 0.9 kg/m3
273.15 K, 16000 kPa, Liquid, x2 = 0.8512
  mass density: 877 ± 1 kg/m3
273.15 K, 16001 kPa, Liquid, x2 = 0.9558
  mass density: 972.4 ± 0.9 kg/m3
273.15 K, 17000 kPa, Liquid, x2 = 0.9558
  mass density: 977.6 ± 0.8 kg/m3
273.15 K, 17003 kPa, Liquid, x2 = 0.8512
  mass density: 885.4 ± 0.9 kg/m3
273.15 K, 18000 kPa, Liquid, x2 = 0.8512
  mass density: 892.9 ± 0.9 kg/m3
273.15 K, 18001 kPa, Liquid, x2 = 0.9558
  mass density: 982.4 ± 0.8 kg/m3
273.15 K, 19001 kPa, Liquid, x2 = 0.9558
  mass density: 987.2 ± 0.8 kg/m3
273.15 K, 19039 kPa, Liquid, x2 = 0.8512
  mass density: 898.3 ± 1 kg/m3
273.15 K, 20001 kPa, Liquid, x2 = 0.9558
  mass density: 991.7 ± 0.8 kg/m3
283.15 K, 1000 kPa, Gas, x2 = 0.9558
  mass density: 21 ± 0.2 kg/m3
283.15 K, 1002 kPa, Gas, x2 = 0.8512
  mass density: 19.2 ± 0.2 kg/m3
283.15 K, 2000 kPa, Gas, x2 = 0.9558
  mass density: 43.2 ± 0.2 kg/m3
283.15 K, 2001 kPa, Gas, x2 = 0.8512
  mass density: 39.7 ± 0.2 kg/m3
283.15 K, 3000 kPa, Gas, x2 = 0.8512
  mass density: 63.3 ± 0.2 kg/m3
283.15 K, 3001 kPa, Gas, x2 = 0.9558
  mass density: 69.8 ± 0.2 kg/m3
283.15 K, 4000 kPa, Gas, x2 = 0.9558
  mass density: 103.9 ± 0.3 kg/m3
283.15 K, 4001 kPa, Gas, x2 = 0.8512
  mass density: 91.1 ± 0.2 kg/m3
283.15 K, 4700 kPa, Gas, x2 = 0.9558
  mass density: 139.4 ± 0.4 kg/m3
283.15 K, 5000 kPa, Gas, x2 = 0.8512
  mass density: 125.7 ± 0.3 kg/m3
283.15 K, 6001 kPa, Gas, x2 = 0.8512
  mass density: 175.6 ± 0.4 kg/m3
283.15 K, 6200 kPa, Liquid, x2 = 0.9558
  mass density: 819 ± 1.2 kg/m3
283.15 K, 7000 kPa, Liquid, x2 = 0.9558
  mass density: 835.3 ± 1.2 kg/m3
283.15 K, 8001 kPa, Liquid, x2 = 0.9558
  mass density: 849.8 ± 1.1 kg/m3
283.15 K, 9001 kPa, Liquid, x2 = 0.9558
  mass density: 862.8 ± 1.2 kg/m3
283.15 K, 9610 kPa, Liquid, x2 = 0.8512
  mass density: 686.6 ± 1.5 kg/m3
283.15 K, 10001 kPa, Liquid, x2 = 0.8512
  mass density: 699.4 ± 1.7 kg/m3
283.15 K, 10001 kPa, Liquid, x2 = 0.9558
  mass density: 873.8 ± 1.1 kg/m3
283.15 K, 11001 kPa, Liquid, x2 = 0.8512
  mass density: 728.8 ± 1.6 kg/m3
283.15 K, 11004 kPa, Liquid, x2 = 0.9558
  mass density: 884.1 ± 1.1 kg/m3
283.15 K, 12000 kPa, Liquid, x2 = 0.9558
  mass density: 893.2 ± 1 kg/m3
283.15 K, 12001 kPa, Liquid, x2 = 0.8512
  mass density: 751.4 ± 1.4 kg/m3
283.15 K, 13000 kPa, Liquid, x2 = 0.8512
  mass density: 770.5 ± 1.3 kg/m3
283.15 K, 13000 kPa, Liquid, x2 = 0.9558
  mass density: 901.9 ± 1 kg/m3
283.15 K, 14001 kPa, Liquid, x2 = 0.8512
  mass density: 786.6 ± 1.2 kg/m3
283.15 K, 14002 kPa, Liquid, x2 = 0.9558
  mass density: 909.9 ± 0.9 kg/m3
283.15 K, 15000 kPa, Liquid, x2 = 0.8512
  mass density: 800 ± 1.1 kg/m3
283.15 K, 15000 kPa, Liquid, x2 = 0.9558
  mass density: 917.3 ± 0.9 kg/m3
283.15 K, 16001 kPa, Liquid, x2 = 0.8512
  mass density: 812.4 ± 1.1 kg/m3
283.15 K, 16001 kPa, Liquid, x2 = 0.9558
  mass density: 924.2 ± 0.9 kg/m3
283.15 K, 17000 kPa, Liquid, x2 = 0.9558
  mass density: 930.8 ± 0.9 kg/m3
283.15 K, 17001 kPa, Liquid, x2 = 0.8512
  mass density: 823.5 ± 1 kg/m3
283.15 K, 18001 kPa, Liquid, x2 = 0.9558
  mass density: 937 ± 0.9 kg/m3
283.15 K, 19001 kPa, Liquid, x2 = 0.9558
  mass density: 943 ± 0.8 kg/m3
283.15 K, 20003 kPa, Liquid, x2 = 0.9558
  mass density: 948.7 ± 0.8 kg/m3
293.15 K, 1000 kPa, Gas, x2 = 0.9558
  mass density: 22.8 ± 0.2 kg/m3
293.15 K, 1001 kPa, Gas, x2 = 0.8512
  mass density: 18.7 ± 0.2 kg/m3
293.15 K, 2000 kPa, Gas, x2 = 0.8512
  mass density: 38.1 ± 0.2 kg/m3
293.15 K, 2002 kPa, Gas, x2 = 0.9558
  mass density: 42.6 ± 0.2 kg/m3
293.15 K, 3001 kPa, Gas, x2 = 0.8512
  mass density: 59.8 ± 0.2 kg/m3
293.15 K, 3001 kPa, Gas, x2 = 0.9558
  mass density: 66.2 ± 0.2 kg/m3
293.15 K, 4001 kPa, Gas, x2 = 0.8512
  mass density: 84.6 ± 0.2 kg/m3
293.15 K, 4001 kPa, Gas, x2 = 0.9558
  mass density: 95.2 ± 0.2 kg/m3
293.15 K, 5000 kPa, Gas, x2 = 0.9558
  mass density: 132.4 ± 0.3 kg/m3
293.15 K, 5003 kPa, Gas, x2 = 0.8512
  mass density: 113.5 ± 0.3 kg/m3
293.15 K, 6001 kPa, Gas, x2 = 0.9558
  mass density: 190.2 ± 0.4 kg/m3
293.15 K, 6002 kPa, Gas, x2 = 0.8512
  mass density: 148.8 ± 0.4 kg/m3
293.15 K, 7000 kPa, Gas, x2 = 0.8512
  mass density: 194.6 ± 0.4 kg/m3
293.15 K, 7402 kPa, Liquid, x2 = 0.9558
  mass density: 718 ± 1.5 kg/m3
293.15 K, 8001 kPa, Gas, x2 = 0.8512
  mass density: 260.9 ± 0.5 kg/m3
293.15 K, 8002 kPa, Liquid, x2 = 0.9558
  mass density: 747 ± 1.3 kg/m3
293.15 K, 8600 kPa, Gas, x2 = 0.8512
  mass density: 316 ± 0.6 kg/m3
293.15 K, 9001 kPa, Liquid, x2 = 0.9558
  mass density: 775.6 ± 1.2 kg/m3
293.15 K, 9801 kPa, Fluid (supercritical or subcritical phases), x2 = 0.8512
  mass density: 460.3 ± 0.9 kg/m3
293.15 K, 10001 kPa, Fluid (supercritical or subcritical phases), x2 = 0.8512
  mass density: 481.5 ± 1 kg/m3
293.15 K, 10001 kPa, Liquid, x2 = 0.9558
  mass density: 797.4 ± 1.4 kg/m3
293.15 K, 11001 kPa, Liquid, x2 = 0.8512
  mass density: 564.7 ± 2.1 kg/m3
293.15 K, 11002 kPa, Liquid, x2 = 0.9558
  mass density: 813.9 ± 1.3 kg/m3
293.15 K, 12001 kPa, Liquid, x2 = 0.8512
  mass density: 617.8 ± 1.8 kg/m3
293.15 K, 12002 kPa, Liquid, x2 = 0.9558
  mass density: 828.6 ± 1.2 kg/m3
293.15 K, 13000 kPa, Liquid, x2 = 0.9558
  mass density: 841.3 ± 1.1 kg/m3
293.15 K, 13002 kPa, Liquid, x2 = 0.8512
  mass density: 657.7 ± 1.6 kg/m3
293.15 K, 14000 kPa, Liquid, x2 = 0.9558
  mass density: 852.2 ± 1.1 kg/m3
293.15 K, 14001 kPa, Liquid, x2 = 0.8512
  mass density: 686.2 ± 1.4 kg/m3
293.15 K, 15001 kPa, Liquid, x2 = 0.8512
  mass density: 710.2 ± 1.3 kg/m3
293.15 K, 15001 kPa, Liquid, x2 = 0.9558
  mass density: 862.4 ± 1 kg/m3
293.15 K, 16001 kPa, Liquid, x2 = 0.8512
  mass density: 730.8 ± 1.2 kg/m3
293.15 K, 16001 kPa, Liquid, x2 = 0.9558
  mass density: 871.6 ± 1 kg/m3
293.15 K, 17000 kPa, Liquid, x2 = 0.9558
  mass density: 880.2 ± 1 kg/m3
293.15 K, 17002 kPa, Liquid, x2 = 0.8512
  mass density: 747.7 ± 1.1 kg/m3
293.15 K, 18000 kPa, Liquid, x2 = 0.9558
  mass density: 888.3 ± 0.9 kg/m3
293.15 K, 19001 kPa, Liquid, x2 = 0.9558
  mass density: 895.9 ± 0.8 kg/m3
293.15 K, 20000 kPa, Liquid, x2 = 0.9558
  mass density: 902.8 ± 0.8 kg/m3
